# Laboratory results as given in paper PMC8746798, “Evaluation of 2-Thioxoimadazolidin-4-one Derivatives as Potent Anti-Cancer Agents through Apoptosis Induction and Antioxidant Activation: In Vitro and In Vivo Approaches” (Molecules, 2021).
# Experiments:
# [1] = test system: THLE-2 normal liver cells; experiment: MTT assay, normal liver cells; format: cell-based; conditions: Homo sapiens, THLE-2, mean ± SE, n = 3
# HepG2 cells = experiment: Annexin V-FITC/PI apoptosis/necrosis flow cytometry; format: cell-based, human
# Source text: Apoptotic cells were quantified using double staining with annexin V and PI on flow cytometry. […] The detailed methodology of flow cytometric analysis (annexin V/PI differential apoptosis/necrosis, DNA content–flow cytometry aided cell cycle) is provided in the Supplementary Materials.
# Supplementary materials for detailed methodology
# Evaluation of 2-thioxoimadazolidin-4-one Derivatives as Potent
# Anti-cancer Agents Through Apoptosis Induction and Antioxi-dant Activation: In vitro and In vivo Approaches
# Mohamed S. Nafie 1,*, Ahmed I. Khodair 2,*, Hebat Allah Y. Hassan 3, Noha M. Abd El-Fadeal 4, Hanin A. Bogari 5 , Sameh S. Elhady 6 and Safwat A. Ahmed 3,7,* […]
# Apoptosis and necrosis cell populations are determined using Annexin V-FITC apop-tosis detection kit (Abcam Inc., Cambridge Science Park, Cambridge, UK) coupled with 2 fluorescent channels flowcytometry. […]
# Then, cells are incubated in dark with 0.5 ml of Annexin V-FITC/PI solution for 30 min in dark at room temperature according to manufacturer protocol. After staining, cells are injected via ACEA Novocyte™ flowcytometer (ACEA Biosciences Inc., San Diego, CA, USA) and analyzed for FITC and PI fluorescent signals using FL1 and FL2 signal detector, respectively (λex/em 488/530 nm for FITC and λex/em 535/617 nm for PI). […]
# [2] = Hematological parameters (CBC) in mice; format: in vivo; conditions: 6 mg/Kg BW; for Hemoglobin: mean ± SE n = 9
# Experimental: (§1) We randomly divided 50 mice into groups 5 groups (10 mice in each group): normal control (I) (mice injected intraperitoneally with the same volume of solvent for 14 consecutive days); group II, a group of normal mice treated with compound 4 (mice injected intraperitoneally with newly produced compound 4 at a dose of 6 mg/kg per day for 14 days); group III, solid tumor group (mice were implanted with solid tumor); group IV, group were treated with 5-FU (after 10 days of tumor implantation, mice were treated with 6 mg/kg only once); and group V, solid tumor group were treated with compound 4 (after 10 days of tumor implantation, mice were treated with 6 mg/kg only once). after one day of the previous treatment, 10 mice from each group were sacrificed and tumor weight, tumor volume (length and width of solid femoral tumor), blood and liver samples were obtained from each group. A portion of each blood sample taken was used for complete blood count (CBC) and the rest was centrifuged to obtain the serum. Serum was used for biochemical parameter estimation. The livers were rapidly dissected, washed with isotonic saline, and dried. The experiment design is summarized in Supplementary Figure S3.
# Complete blood counts (CBCs) were counted using an AbbottCELLDYN®1800 Automated Hematology Analyzer (Abbott Park, IL, USA) equipped with an off-the-shelf kit (Abbott Laboratories, Abbott Park, IL, USA). For microscopic histopathological examination, tumor and kidney slices were maintained in 10% formalin, dehydrated with graduated alcohol, embedded in paraffin sections, H&E stained, and hematoxylin stained.
# [3] = Serum biochemical parameters in mice; format: in vivo; conditions: 6 mg/Kg BW
# Experimental: as §1
# Evaluation of the activities of aspartate aminotransferase (AST) and alanine aminotransferase (ALT) using a commercial kit (ELITech Clinical Systems, France). The serum albumin level was measured using a kit obtained from STANBIO Company (USA). A commercial kit from the BioDiagnostic Company (Cairo, Egypt) was used to evaluate creatinine and urea levels.
# [4] = Median lethal dose (LD50); conditions: mouse, in vivo, ip; mice, I.p., 24 h mortality
# Experimental: Adopting the procedure described by Finney, different known concentrations of the imidamide 4 were intraperitoneally injected into a group of eight mice (weight on average 21.1 g). […] This assay was carried out evaluate its dose-safety limit and select the dose to be used in the treatment.
structure (smiles),measurement,setting,value
"O=C1NC(=S)N(c2ccc(O)cc2)/C1=C/c1cccs1 [Compound 4, (E)-1-(4-Hydroxyphenyl)-5-(thiophen-2-ylmethylene)-2-thioxoimidazolidin-4-one]",IC50,[1],56.6 ± 1.5 µM
same,"necrotic cells (Q1, AV−/PI+)","HepG2 cells; HepG2, IC50 = 0.017 μM, 48 h, control 1.05%",6.08%
same,apoptosis induction versus control,"HepG2 cells; HepG2, 11.42% compared to 0.59% in control",19.35 fold
same,RBC’s count,"[2]; SEC-bearing mice, SEC control 7.52 ± 0.5",9.3 ± 0.4 ×10^6/µL
same,Hemoglobin,"[2]; SEC-bearing mice, SEC control 11.8 ± 0.8",13.3 ± 0.7 g/dL
same,WBC’s count,"[2]; SEC-bearing mice, SEC control 16.5 ± 3.4",9.5 ± 1.9 ×10^3/µL
same,RBC’s count,"[2]; normal mice, normal control 8.8 ± 0.3",8.7 ± 0.4 ×10^6/µL
same,WBC’s count,"[2]; normal mice, normal control 9.4 ± 1.2",9.42 ± 1.3 ×10^3/µL
same,Hemoglobin,"[2]; normal mice, normal control 13.3 ± 0.7",12.6 ± 0.5 g/dL
same,Creatinine,[3]; SEC-bearing mice,1.0 ± 0.1 mg/dL
same,Albumin,"[3]; SEC-bearing mice, SEC control 4.01 ± 0.4",3.43 ± 0.1 g/dL
same,Total Protein,"[3]; SEC-bearing mice, SEC control 6.6 ± 0.4",7.4 ± 0.2 g/dL
same,Urea,"[3]; SEC-bearing mice, SEC control 25.2 ± 2.3",27 ± 1.5 mg/dL
same,AST,"[3]; SEC-bearing mice, SEC control 48.9 ± 5.5",37.8 ± 8.4 U/L
same,ALT,"[3]; SEC-bearing mice, SEC control 50 ± 2.7",37.4 ± 10.4 U/L
same,Creatinine,"[3]; normal mice, normal control 1.6 ± 0.2",1.1 ± 0.2 mg/dL
same,Albumin,"[3]; normal mice, normal control 4.4 ± 0.4",4.4 ± 0.8 g/dL
same,Total Protein,"[3]; normal mice, normal control 6.9 ± 0.4",6.9 ± 1.5 g/dL
same,Urea,"[3]; normal mice, normal control 27.8 ± 2.6",28.13 ± 2.7 mg/dL
same,ALT,"[3]; normal mice, normal control 35.3 ± 3.8",43.25 ± 7.4 U/L
same,AST,"[3]; normal mice, normal control 37.4 ± 2.8",44.9 ± 10.8 U/L
same,LD50 at 24 h,[4],6 mg/kg
